Measured values from patent publication US5153180A, “Fluorinated nucleosides and process for treating retrovirus infections therewith” (priority 1990, dated 1992).
Read-outs that look alike come from different tables or passages of the source.

What was measured:
[1] = target: T1, HIV-associated reverse transcriptase (HIV-RT) (Human immunodeficiency virus type 1 group M subtype B, UniProt P04585); assay: Inhibition of HIV-associated reverse transcriptase (polymerization of artificial templates); assay type: biochemical; parameters: efficacy against HIV-associated reverse transcriptase: dose or concentration left out as unconfirmed; conditions: for IC50: read-out: ID50 HIV-RT
T1 construct: HIV-associated reverse transcriptase (HIV-RT)
Excerpt: At first the triphosphates of some compounds according to formula I were investigated for their ability to inhibit the polymerization of artificial templates (such as polyAoligodT and polyColigodG) catalyzed by HIV-associated reverse transcriptase (HIV-RT) according to the method described by A. D. Hoffman et al., Virology 147, 326, 1985. […] FdTTP, FdUTP and FdGTP are among the strongest inhibitors found so far for HIV-RT. In comparison the ID50 for 3'-azidothymidinetriphosphate was estimated under our conditions to be about […].

[2] = target: T2, cellular DNA polymerase β (Bos taurus, UniProt Q27958); assay: Effect on cellular DNA polymerase β; assay type: biochemical; conditions: enzyme purified from calf thymus; read-out: ID50 cellular polymerase β
T2 construct: purified from calf thymus; from tissue; host or cells: calf thymus
Excerpt: (§1) The strong inhibiting effect of 3'-fluoro-substituted deoxynucleotides against HIV-reverse transcriptase can be utilized therapeutically only if the cellular DNA polymerases, especially the DNA polymerase α which is required for the replication of the cellular DNA, remain substantially unaffected. […] The ID50 values for the DNA polymerase β responsible for cellular DNA repair vary between 1,8-15 μm. Both enzymes cellular DNA polymerase α and β were purified from calf thymus and tested according to the method of E. Matthes et al., Biomed. Biochim. Acta 44. K63 (1985).

[3] = target: T3, cellular DNA polymerase α (Bos taurus, UniProt A0AAA9TD94); assay: Effect on cellular DNA polymerase α; assay type: biochemical; conditions: enzyme purified from calf thymus; read-out: ID50 cellular polymerase α
T3 construct: purified from calf thymus; from tissue; host or cells: calf thymus
T3 sequence (A0AAA9TD94 1-1441): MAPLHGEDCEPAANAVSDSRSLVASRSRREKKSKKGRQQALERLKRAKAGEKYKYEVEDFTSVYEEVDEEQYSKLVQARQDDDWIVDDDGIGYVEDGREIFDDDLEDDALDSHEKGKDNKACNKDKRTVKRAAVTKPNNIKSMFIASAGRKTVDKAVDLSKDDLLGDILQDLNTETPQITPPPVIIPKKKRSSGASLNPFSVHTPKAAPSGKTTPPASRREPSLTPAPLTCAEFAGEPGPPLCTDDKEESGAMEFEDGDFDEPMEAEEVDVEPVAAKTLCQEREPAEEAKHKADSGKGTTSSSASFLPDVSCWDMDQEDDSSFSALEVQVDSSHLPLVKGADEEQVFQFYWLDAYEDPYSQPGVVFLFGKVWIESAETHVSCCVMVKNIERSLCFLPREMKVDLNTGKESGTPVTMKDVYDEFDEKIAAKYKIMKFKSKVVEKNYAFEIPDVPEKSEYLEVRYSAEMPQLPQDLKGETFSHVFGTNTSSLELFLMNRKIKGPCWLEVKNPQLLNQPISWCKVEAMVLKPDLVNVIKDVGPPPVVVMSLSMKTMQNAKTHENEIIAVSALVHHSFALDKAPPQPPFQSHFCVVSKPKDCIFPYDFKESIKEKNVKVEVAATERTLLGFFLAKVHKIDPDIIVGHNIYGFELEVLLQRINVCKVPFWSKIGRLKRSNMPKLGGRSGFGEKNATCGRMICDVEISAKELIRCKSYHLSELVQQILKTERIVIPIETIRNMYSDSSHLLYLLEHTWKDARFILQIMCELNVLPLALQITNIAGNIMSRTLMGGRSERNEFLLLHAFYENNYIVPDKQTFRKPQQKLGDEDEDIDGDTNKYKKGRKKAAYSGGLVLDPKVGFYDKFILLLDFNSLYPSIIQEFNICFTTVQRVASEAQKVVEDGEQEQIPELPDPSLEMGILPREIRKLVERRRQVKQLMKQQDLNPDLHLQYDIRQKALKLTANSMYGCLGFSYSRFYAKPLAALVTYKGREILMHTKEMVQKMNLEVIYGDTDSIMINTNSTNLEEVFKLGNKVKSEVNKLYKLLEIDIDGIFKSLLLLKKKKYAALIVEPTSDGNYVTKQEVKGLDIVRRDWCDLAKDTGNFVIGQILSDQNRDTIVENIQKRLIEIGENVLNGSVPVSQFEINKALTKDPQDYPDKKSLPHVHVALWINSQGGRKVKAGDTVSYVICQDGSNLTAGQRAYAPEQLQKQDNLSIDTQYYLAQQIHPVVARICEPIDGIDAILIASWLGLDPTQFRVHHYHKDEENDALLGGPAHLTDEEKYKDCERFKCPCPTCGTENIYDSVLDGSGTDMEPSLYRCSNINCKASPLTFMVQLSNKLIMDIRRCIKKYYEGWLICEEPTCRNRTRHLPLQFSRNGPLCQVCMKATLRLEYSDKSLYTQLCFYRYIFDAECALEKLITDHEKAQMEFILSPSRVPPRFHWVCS
Excerpt: as §1

in vitro = conditions: human, mt-4 cells
Procedure: (§2) Under in vitro conditions immortalized T-lymphocytes can be killed within few days by the cytopathic effect of HIV. […] For this purpose about 20,000 MT-4 cells (Harada et al. Science 229, 563 (1985)) Were infected with HIV (titer: 0.04 m.o.i.) and incubated in the presence or absence of varying concentrations of compounds according to formula I, with 10% fetal calf serum (FCS) in 200 μl RPMI medium. After 6 days of incubation the viable cells were counted that were excluded from trypan blue staining.

HIV = assay: Inhibition of the cytopathic effect of HIV on MT-4 cells; assay type: cell-based; conditions: MT-4 cells, 6 days of incubation; for EC50: Human immunodeficiency virus 1, MT4, 144 h, read-out: 50% antiviral dose (ED50)
Procedure: as §2

[4] = target: T4, thymidine-phosphorylase from human spleen (Homo sapiens, UniProt P19971); assay: Phosphorolytic cleavage by thymidine-phosphorylase; assay type: in vitro ADME; conditions: for metabolised at 3 h, 1000 µM: 1 mM, within 3 hours, read-out: extent of cleavage by thymidine-phosphorylase
T4 construct: thymidine-phosphorylase from human spleen; from tissue; host or cells: human spleen
T4 sequence (P19971 11-482): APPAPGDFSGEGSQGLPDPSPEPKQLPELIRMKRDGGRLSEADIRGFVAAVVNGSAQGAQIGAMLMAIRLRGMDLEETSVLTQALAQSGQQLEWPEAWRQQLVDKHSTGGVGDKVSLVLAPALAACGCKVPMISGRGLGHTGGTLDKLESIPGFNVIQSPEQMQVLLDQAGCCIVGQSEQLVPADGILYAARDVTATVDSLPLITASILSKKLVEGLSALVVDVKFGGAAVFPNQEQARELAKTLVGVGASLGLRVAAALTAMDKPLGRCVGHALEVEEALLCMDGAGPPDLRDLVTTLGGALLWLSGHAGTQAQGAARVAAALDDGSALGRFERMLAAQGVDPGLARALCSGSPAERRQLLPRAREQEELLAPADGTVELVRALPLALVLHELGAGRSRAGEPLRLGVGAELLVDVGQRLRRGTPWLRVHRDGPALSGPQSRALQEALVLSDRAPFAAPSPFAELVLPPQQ
Excerpt: Therefore FTdR, FddBrUrd and FddFUrd were investigated for their ability to be cleaved by thymidine-phosphorylase from human spleen.

[5] = concentration required for 50% inhibition

Compound	CC50 at 144 h (in vitro) [µM]	EC50 (HIV) [µM]	other results
Cc1cn([C@H]2C[C@H](N=[N+]=[N-])[C@@H](CO[P@](=O)(O)O[P@](=O)(O)OP(=O)(O)O)O2)c(=O)[nH]c1=O [3'-azidothymidinetriphosphate, reference compound]	–	–	IC50 ([1]; estimated under our conditions): ~50 µM
Cc1cn([C@H]2C[C@H](Cl)[C@@H](COP(=O)(O)OP(=O)(O)OP(=O)(O)O)O2)c(=O)[nH]c1=O [3'-chloro-2',3'-dideoxythymidine triphosphate, reference compound]	–	–	efficacy against HIV-associated reverse transcriptase [1]: completely ineffective
CCc1cn([C@H]2C[C@H](F)[C@@H](COP(=O)(O)OP(=O)(O)OP(=O)(O)O)O2)c(=O)[nH]c1=O [Compound F5EtdUTP, 2'-3'-dideoxy-3'-fluoro-5-ethyluridine-5'-triphphosphate]	–	–	IC50 [2]: 4 µM; IC50 [3]: 10 µM; IC50 [1, 5]: 7.5 µM
O=c1[nH]c(=O)n([C@H]2C[C@H](F)[C@@H](COP(=O)(O)OP(=O)(O)OP(=O)(O)O)O2)cc1F [Compound F5FdUTP, 2'-3'-dideoxy-3'-fluoro-5-fluorouridine-5'-triphosphate]	–	–	IC50 [2]: 15 µM; IC50 [3]: > 200 µM; IC50 [1, 5]: 0.45 µM
O=c1[nH]c(=O)n([C@@H]2O[C@H](CO)[C@@H](F)[C@@H]2O)cc1Br [FaraBrU, 3'-deoxy-3'-fluoroarabinosyl-5-bromouracil]	> 100	> 100	–
Nc1ccn([C@@H]2O[C@H](CO)[C@@H](F)[C@@H]2O)c(=O)n1 [FaraC, 3'-deoxy-3'-fluoroarabinosylcytosine]	> 100	> 100	–
O=c1ccn([C@@H]2O[C@H](CO)[C@@H](F)[C@@H]2O)c(=O)[nH]1 [FaraU, 3'-deoxy-3'-fluoroarabinosyluracil]	> 500	> 500	–
Nc1nc2c(ncn2[C@H]2C[C@H](F)[C@@H](COP(=O)(O)OP(=O)(O)OP(=O)(O)O)O2)c(=O)[nH]1 [FdGTP, 2'-3'-dideoxy-3'-fluoroguanosine-5'-triphosphate]	–	–	IC50 [2]: 1.8 µM; IC50 [3]: > 200 µM; IC50 [1, 5]: 0.05 µM
O=c1ccn([C@H]2C[C@H](F)[C@@H](COP(=O)(O)OP(=O)(O)OP(=O)(O)O)O2)c(=O)[nH]1 [FdUTP, 2'-3'-dideoxy-3'-fluorouridine-5'-triphosphate]	–	–	IC50 [2]: 3 µM; IC50 [3]: > 200 µM; IC50 [1, 5]: 0.07 µM
Nc1ncnc2c1ncn2[C@H]1C[C@H](F)[C@@H](CO)O1 [FddAdo, 2'-3'-dideoxy-3'-fluoroadenosine]	75	> 100	–
O=c1[nH]c(=O)n([C@H]2C[C@H](F)[C@@H](CO)O2)cc1Br [FddBrUrd, 2'-3'-dideoxy-3'-fluoro-5-bromouridine]	190	5	metabolised at 3 h, 1000 µM [4]: 3 to 8%
N#Cc1cn([C@H]2C[C@H](F)[C@@H](CO)O2)c(=O)[nH]c1=O [FddCNUrd, 2'-3'-dideoxy-3'-fluoro-5-cyanouridine]	> 500	–	50% antiviral dose (ED50) (HIV): not detectable
Nc1ccn([C@H]2C[C@H](F)[C@@H](CO)O2)c(=O)n1 [FddCyt, 2'-3'-dideoxy-3'-fluorocytidine]	62	25	–
Nc1nc(N)c2ncn([C@H]3C[C@H](F)[C@@H](CO)O3)c2n1 [FddDAPR, 2'-3'-dideoxy-3'-fluoro-2,6-diaminopurineriboside]	480	6	–
CCc1cn([C@H]2C[C@H](F)[C@@H](CO)O2)c(=O)[nH]c1=O [FddEtUrd, 2'-3'-dideoxy-3'-fluoro-5-ethyluridine]	> 500	> 500	–
O=c1[nH]c(=O)n([C@H]2C[C@H](F)[C@@H](CO)O2)cc1F [FddFUrd, 2'-3'-dideoxy-3'-fluoro-5-fluorouridine]	> 200	–	50% antiviral dose (ED50) (HIV): not detectable; metabolised at 3 h, 1000 µM [4]: 3 to 8%
Nc1nc2c(ncn2[C@H]2C[C@H](F)[C@@H](CO)O2)c(=O)[nH]1 [FddGuo, 2'-3'-dideoxy-3'-fluoroguanosine]	250	5	–
O=c1[nH]c(=O)n([C@H]2C[C@H](F)[C@@H](CO)O2)cc1CO [FddHMUrd, 2'-3'-dideoxy-3'-fluoro-5-hydroxymethyluridine]	> 500	> 500	–
Cc1cn([C@H]2C[C@H](F)[C@@H](CO)O2)c(=O)nc1N [FddMCyt, 2'-3'-dideoxy-3'-fluoromethylcytidine]	125	125	–
Cc1cn([C@H]2C[C@H](O)[C@@H](CO)O2)c(=O)[nH]c1=O [thymidine, reference compound]	–	–	metabolised at 2 h [4]: 90%
